Like-named read-outs stand apart in the source and are kept apart here.
Legend:
PDE4B1 = target: T1, PDE4B1 (Homo sapiens, UniProt Q07343); test: In vitro PDE4B enzyme activity assay (IMAP FP-based); type: biochemical
T1 construct: purchased BPS 60041
Protocol: (§1) The formula for calculating inhibition rates is: inhibition rate=M/(M−Mcontrol)×100; IC50 values were calculated from concentration-inhibition rate curves fitted.

PDE3A = target: T2, PDE3A (Homo sapiens, UniProt Q14432); test: In vitro PDE3A enzyme activity assay (IMAP FP-based); type: biochemical
T2 construct: purchased BPS 60030
T2 sequence (Q14432 669-1141 limits assumed): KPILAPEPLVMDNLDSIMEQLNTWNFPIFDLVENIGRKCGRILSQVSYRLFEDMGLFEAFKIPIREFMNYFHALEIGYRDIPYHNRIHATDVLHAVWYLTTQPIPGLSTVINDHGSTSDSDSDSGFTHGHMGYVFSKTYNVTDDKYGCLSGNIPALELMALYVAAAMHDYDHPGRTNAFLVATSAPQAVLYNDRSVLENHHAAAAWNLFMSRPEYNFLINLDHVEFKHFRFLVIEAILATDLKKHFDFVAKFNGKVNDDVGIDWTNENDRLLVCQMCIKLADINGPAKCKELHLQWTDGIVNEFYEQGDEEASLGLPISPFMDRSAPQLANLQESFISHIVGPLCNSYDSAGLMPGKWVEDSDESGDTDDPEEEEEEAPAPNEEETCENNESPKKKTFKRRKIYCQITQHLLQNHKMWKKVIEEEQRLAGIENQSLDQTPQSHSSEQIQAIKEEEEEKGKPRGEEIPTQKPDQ
Protocol: as §1

[1] = mouse, in vivo, inhaled or intranasal
Protocol: To evaluate the pharmacokinetic characteristics of test samples in […] and their distributions in lung tissue after intratracheal administration.
0.5 g of tween 80 was weighed out and dissolved in 50 mL of a pH 2.5 citric acid/disodium hydrogen phosphate buffered salt solution for later use.
1.0 mg of test compound was weighed out and dissolved in a proper amount of the tween solution to prepare a 0.03 mg/mL for later use.
0.5 g of CMC-Na and 0.5 g of tween 20 were weighed out and well mixed with 50 mL of 0.9% normal saline solution to obtain a 1% CMC-Na and tween 20 solution for later use.
1.0 mg of test compound was weighed out, added to 10 mL of the above solution, dispersed ultrasonically, and well stirred to obtain a suspension for later use.
Mice were anesthetized with isoflurane gas and then administered compounds via the trachea. […] 200 μL of whole blood was collected, then anticoagulated with EDTA-K2, and centrifuged at 2-8° C. at a rate of about 6800 g for 6 min. The resulting plasma was transferred to properly labeled test tubes within 1 h of blood collection/centrifugation and stored at −80° C. […] The collected tissue samples were transferred to properly labeled test tubes and stored at −80° C.
Plasma samples (30.0 μL) were added to 1.5 mL centrifuge tubes, and 150 μL of internal standard working solution was added. […]

[2] = recent phase II clinical data; cited from earlier work

T1 sequence (Q07343 whole entry): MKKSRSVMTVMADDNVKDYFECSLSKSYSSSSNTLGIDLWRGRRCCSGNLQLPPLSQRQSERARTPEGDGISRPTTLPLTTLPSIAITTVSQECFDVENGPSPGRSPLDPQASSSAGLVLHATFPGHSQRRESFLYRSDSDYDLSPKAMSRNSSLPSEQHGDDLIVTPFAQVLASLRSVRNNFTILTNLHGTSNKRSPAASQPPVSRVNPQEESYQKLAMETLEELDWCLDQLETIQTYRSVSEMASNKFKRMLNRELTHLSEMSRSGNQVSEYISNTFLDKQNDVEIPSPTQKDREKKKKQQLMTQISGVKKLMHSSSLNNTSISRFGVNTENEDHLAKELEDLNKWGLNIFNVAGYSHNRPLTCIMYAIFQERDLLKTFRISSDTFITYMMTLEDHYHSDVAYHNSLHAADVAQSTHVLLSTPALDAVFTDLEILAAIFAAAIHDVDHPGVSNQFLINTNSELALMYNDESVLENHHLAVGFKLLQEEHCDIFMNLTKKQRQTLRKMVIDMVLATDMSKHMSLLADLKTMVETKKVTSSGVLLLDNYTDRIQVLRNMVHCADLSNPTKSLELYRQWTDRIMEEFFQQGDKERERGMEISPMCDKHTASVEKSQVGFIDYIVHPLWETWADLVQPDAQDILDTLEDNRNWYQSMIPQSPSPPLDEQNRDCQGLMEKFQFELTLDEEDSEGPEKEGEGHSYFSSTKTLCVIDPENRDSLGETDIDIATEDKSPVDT

| Compound | IC50 (PDE4B1) | inhibition at 2 µM (PDE4B1; read-out: Inhibition rate (%) PDE4B1 (2000 nM)) | Inhibition rate (%) PDE4B1 (2000 nM) (PDE4B1; compound at 2000 nM) | IC50 (PDE4B1; read-out: IC50 (nM) PDE4B1) | IC50 (PDE3A) | Inhibition rate (%) PDE3A (500 nM) (PDE3A; compound at 500 nM) | Plasma T1/2 [1] | Plasma Tmax [1] | bronchodilation and symptoms in patients with chronic obstructive pulmonary disease [2] | tolerability / adverse events [2] |
| --- | --- | --- | --- | --- | --- | --- | --- | --- | --- | --- |
| CCOc1cc2c(cc1OC)-c1cc(N(CCN3CCOC3=O)c3c(C)cc(C)cc3C)nc(=O)n1CC2 [WX001] | 876 nM | 66.3% | – | – | – | – | – | – | – | – |
| 9,10-dimethoxy-2-(2,4,6-trimethylphenylimino)-3-(N-carbamoyl-2-aminoethyl)-3,4,6,7-tetrahydro-2H-pyrimido[6,l-a]isoquinolin-4-one [RPL554] | – | – | 64.2% | 110 nM | 0.25 nM | 99.2% | 52.8 min | 15 min | significantly improve bronchodilation and symptoms | well tolerated |
